One assay addresses T1, CYP3A4(BFC) (Homo sapiens, UniProt P08684).
T1 construct: purchased BD Biosciences
Briefly: CYP inhibition (fluorescent substrate), CYP3A4(BFC). The format is in vitro ADME. The settings on record: read-out: Cyp IC50 (μM) 3A4(BFC). As for the experimental part: (§1) CYP (Cytochrome P450) enzymes are the major drug metabolizing enzymes present in the liver. The inhibition of CYP enzyme activity (IC50) for each of CYP1A2, CYP2C19, CYP2C9, CYP2D6, CYP3A4(BFC) and CYP3A4(BQ) is determined for compounds, where inhibition of metabolism of a known substrate leads to a decrease in the fluorescence of the metabolized product. The fluorescence of the product is monitored as a function of compound concentration. Compounds are dissolved in dimethyl sulfoxide to a concentration of 100 mM. These are diluted 1 μL into 82 μL of acetonitrile. An 11 μL aliquot of this solution is then added to 204 μL of cofactor mix (1.3% NADPH Regeneration system Solution A, 1.04% NADPH Regeneration system Solution B from BD Biosciences, 5% acetonitrile and 0.05% dimethyl sulfoxide). These are then serially diluted 1:1 (160 μL to 160 μL co-factor mix) for a total of 10 points. A 10 μL aliquot of this final mixture is dispensed into 384 well assay plates and incubated for 10 minutes at 37° C. […] Assay plates are incubated at 37° C. (CYP1A2-15 min; CYP2C9-45 min; CYP2C19, 2D6 and 3A4-30 min) and read in a Tecan Safire 2 plate reader (CYP1A2, 2C19 and 3A4 409 ex/460 em; CYP2C9 and 2D6 409 ex/530 em). The signal versus compound concentration is used to determine the IC50. The enzymes and substrates for this assay are obtained from BD Biosciences.

A further assay deals with T2, Tec (Homo sapiens, UniProt P42680).
T2 sequence (P42680 1-631): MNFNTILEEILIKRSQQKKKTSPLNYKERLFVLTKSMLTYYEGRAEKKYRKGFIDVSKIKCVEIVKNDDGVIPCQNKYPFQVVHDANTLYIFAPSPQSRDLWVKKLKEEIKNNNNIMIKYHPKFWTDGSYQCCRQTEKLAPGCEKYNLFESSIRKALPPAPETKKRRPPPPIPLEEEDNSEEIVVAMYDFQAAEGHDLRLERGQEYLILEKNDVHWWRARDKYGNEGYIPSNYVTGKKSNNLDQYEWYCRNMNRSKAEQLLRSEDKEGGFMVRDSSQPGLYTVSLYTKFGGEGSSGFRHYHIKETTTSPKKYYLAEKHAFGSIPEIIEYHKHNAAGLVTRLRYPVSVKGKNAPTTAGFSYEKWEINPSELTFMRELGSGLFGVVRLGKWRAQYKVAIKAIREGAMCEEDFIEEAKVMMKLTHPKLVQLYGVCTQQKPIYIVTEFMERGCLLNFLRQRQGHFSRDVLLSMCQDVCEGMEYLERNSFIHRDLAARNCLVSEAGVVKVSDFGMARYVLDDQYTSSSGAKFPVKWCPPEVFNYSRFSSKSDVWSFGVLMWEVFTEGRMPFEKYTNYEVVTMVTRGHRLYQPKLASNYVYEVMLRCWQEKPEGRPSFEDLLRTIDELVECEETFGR
Briefly: Biochemical inhibitory activity, other protein kinases: Tec. The settings on record: for Kinase having IC50 of <1 μM: listing of the kinase means IC50 <1 μM; for Kinase having IC50 of >1 μM: listing of the kinase means IC50 >1 μM.

The target of another assay is T3, CYP2C19 (Homo sapiens, UniProt P33261).
T3 construct: purchased BD Biosciences
Put plainly: CYP inhibition (fluorescent substrate), CYP2C19. The format is in vitro ADME. The settings on record: substrate CEC; read-out: Cyp IC50 (μM) 2C19. As for the experimental part:
as §1

Another assay addresses Kit (Homo sapiens, UniProt P10721). Put plainly: Biochemical inhibitory activity, other protein kinases: Kit. The settings on record: for Kinase having IC50 of >1 μM: listing of the kinase means IC50 >1 μM.
The target of a further assay is T4, B-Raf V600E (Homo sapiens, UniProt P15056, V600E).
T4 construct: purchased Upstate Biotechnology
Briefly: Raf biochemical kinase assay (biotin-MEK1 phosphorylation), B-Raf V600E. The settings on record: 100 μM ATP. The procedure: Assays for biochemical and cell based activity are known in the art, for example, as described in PCT publication WO 2007/002433, the disclosure of which is hereby incorporated by reference as it relates to such assays. For example, the biochemical activity IC50 values are determined with respect to inhibition of A-Raf kinase activity, B-Raf kinase activity, c-Raf-1 kinase activity, or B-Raf V600E kinase activity, where inhibition of phosphorylation of a peptide substrate is measured as a function of compound concentration. Compounds to be tested are diluted in dimethyl sulfoxide to a concentration of 0.1 mM. These are serially diluted 15 μL into 30 μL of dimethyl sulfoxide seven times in 96 well plates for a total of 8 dilution points, and for each dilution point 1 μL is added to a well of an assay plate. Plates are prepared such that each well in a 384 well plate contains 1 μL of compound in 10 μL volume with 0.1 ng Raf enzyme (i.e. any of A-Raf, B-Raf, c-Raf-1 or B-Raf V600E, Upstate Biotechnology or prepared by methods known to one of skill in the art), 50 mM HEPES, pH 7.0, 50 mM NaCl, 2 mM MgCl2, 1 mM MnCl2, 0.01% Tween-20, 1 mM DTT, and 100 nM biotin-MEK1 as substrate. The reaction is started with addition of 10 μL of 200 μM ATP (i.e. final 100 μM ATP). After incubation of the kinase reaction for 45 minutes at room temperature, 5 μL/well of Stop Solution is added (25 mM Hepes pH 7.5, 100 mM EDTA, 0.01% BSA with donor beads (Streptavidin coated beads, Perkin Elmer), acceptor beads (Protein A coated, Perkin Elmer), and anti phosphor MEK1/2 antibody (CellSignal), each at final concentration 10 μg/mL). The plates are incubated for 3 hours at room temperature and read on Envision reader (Perkin Elmer). Phosphorylation of Mek1 results in binding of the anti-phosphor-MEK1/2 antibody and association of the donor and acceptor beads such that signal correlates with kinase activity. The signal vs. compound concentration is used to determine the IC50.

In the next assay the target is Btk (Homo sapiens, UniProt Q06187). Briefly: Biochemical inhibitory activity, other protein kinases: Btk. The conditions noted are these: listing of the kinase means IC50 >1 μM.
The target in another assay is Kdr (Homo sapiens, UniProt P35968). Put plainly: Biochemical inhibitory activity, other protein kinases: Kdr. The settings on record: for Kinase having IC50 of >1 μM: listing of the kinase means IC50 >1 μM.
For another assay, the target named is T5, CYP2C9 (Homo sapiens, UniProt P11712).
T5 construct: purchased BD Biosciences
Briefly: CYP inhibition (fluorescent substrate), CYP2C9. The conditions noted are these: substrate MFC; read-out: Cyp IC50 (μM) 2C9. The format is in vitro ADME. As for the experimental part:
as §1

Another assay deals with T6, CYP2D6 (Homo sapiens, UniProt P10635).
T6 construct: purchased BD Biosciences
Put plainly: CYP inhibition (fluorescent substrate), CYP2D6. The format is in vitro ADME. The conditions noted are these: substrate AMMC; read-out: Cyp IC50 (μM) 2D6. As for the experimental part: as §1

A further assay has as its target Fms (Homo sapiens, UniProt P07333). Briefly: Biochemical inhibitory activity, other protein kinases: Fms. The settings on record: listing of the kinase means IC50 >1 μM.
Where [1] appears, read: listing of the kinase means IC50 <1 μM.

A word on the IC50: it is the midpoint of a concentration-inhibition curve.

Sequence of Kdr (P35968 20-1356, species assumed): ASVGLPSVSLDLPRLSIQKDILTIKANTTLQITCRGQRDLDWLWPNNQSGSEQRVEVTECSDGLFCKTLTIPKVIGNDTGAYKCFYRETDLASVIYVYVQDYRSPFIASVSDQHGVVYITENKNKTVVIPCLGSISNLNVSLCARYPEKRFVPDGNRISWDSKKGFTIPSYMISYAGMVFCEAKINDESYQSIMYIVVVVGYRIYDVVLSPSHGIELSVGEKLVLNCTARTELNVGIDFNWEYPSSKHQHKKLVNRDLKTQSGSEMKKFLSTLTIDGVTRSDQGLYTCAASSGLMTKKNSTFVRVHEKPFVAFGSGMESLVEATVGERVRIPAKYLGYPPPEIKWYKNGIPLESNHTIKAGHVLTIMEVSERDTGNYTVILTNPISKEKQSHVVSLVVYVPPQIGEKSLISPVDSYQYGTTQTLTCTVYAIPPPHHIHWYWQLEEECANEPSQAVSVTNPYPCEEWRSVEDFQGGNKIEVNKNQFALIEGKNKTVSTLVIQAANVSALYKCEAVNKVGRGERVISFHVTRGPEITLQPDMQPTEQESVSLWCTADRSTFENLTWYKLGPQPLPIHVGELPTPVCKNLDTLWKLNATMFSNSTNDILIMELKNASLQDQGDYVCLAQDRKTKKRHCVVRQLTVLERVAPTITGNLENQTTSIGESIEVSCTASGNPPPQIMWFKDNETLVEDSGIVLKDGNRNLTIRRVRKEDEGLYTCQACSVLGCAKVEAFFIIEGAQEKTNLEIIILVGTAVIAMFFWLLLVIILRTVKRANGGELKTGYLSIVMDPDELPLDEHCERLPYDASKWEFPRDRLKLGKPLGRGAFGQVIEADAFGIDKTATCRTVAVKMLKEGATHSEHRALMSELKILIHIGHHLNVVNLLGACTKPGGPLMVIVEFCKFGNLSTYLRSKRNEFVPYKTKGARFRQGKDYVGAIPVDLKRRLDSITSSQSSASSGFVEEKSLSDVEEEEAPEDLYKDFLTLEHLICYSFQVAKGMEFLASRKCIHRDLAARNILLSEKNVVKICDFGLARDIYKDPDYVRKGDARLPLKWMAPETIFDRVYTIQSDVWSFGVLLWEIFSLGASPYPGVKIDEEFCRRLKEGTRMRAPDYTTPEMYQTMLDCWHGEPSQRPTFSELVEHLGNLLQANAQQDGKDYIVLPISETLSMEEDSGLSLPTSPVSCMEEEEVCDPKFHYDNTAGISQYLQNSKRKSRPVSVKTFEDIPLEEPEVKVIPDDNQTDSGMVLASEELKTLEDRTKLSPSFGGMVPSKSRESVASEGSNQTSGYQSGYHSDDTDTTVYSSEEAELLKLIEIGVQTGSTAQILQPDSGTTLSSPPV
T4 sequence (P15056 whole entry V600E): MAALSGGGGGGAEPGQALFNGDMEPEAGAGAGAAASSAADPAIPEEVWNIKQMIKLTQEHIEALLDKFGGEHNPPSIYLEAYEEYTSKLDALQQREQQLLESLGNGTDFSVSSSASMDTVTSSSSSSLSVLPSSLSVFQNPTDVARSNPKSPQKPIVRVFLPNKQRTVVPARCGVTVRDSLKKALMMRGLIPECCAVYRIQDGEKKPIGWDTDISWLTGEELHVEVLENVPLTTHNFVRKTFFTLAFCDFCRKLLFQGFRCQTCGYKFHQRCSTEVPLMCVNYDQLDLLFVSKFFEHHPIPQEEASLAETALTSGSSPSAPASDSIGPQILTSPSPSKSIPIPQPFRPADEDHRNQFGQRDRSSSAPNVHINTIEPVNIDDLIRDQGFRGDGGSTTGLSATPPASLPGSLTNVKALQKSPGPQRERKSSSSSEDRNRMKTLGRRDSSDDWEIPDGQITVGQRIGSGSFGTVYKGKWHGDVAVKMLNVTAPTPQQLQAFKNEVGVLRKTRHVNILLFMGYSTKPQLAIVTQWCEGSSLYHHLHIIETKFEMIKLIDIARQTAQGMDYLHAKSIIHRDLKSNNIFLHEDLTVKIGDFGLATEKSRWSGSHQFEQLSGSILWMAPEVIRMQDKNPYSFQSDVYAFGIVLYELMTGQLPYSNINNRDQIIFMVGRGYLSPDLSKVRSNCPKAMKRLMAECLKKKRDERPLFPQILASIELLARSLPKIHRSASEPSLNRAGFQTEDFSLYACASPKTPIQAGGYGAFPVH
Sequence of Fms (P07333 20-972, species assumed): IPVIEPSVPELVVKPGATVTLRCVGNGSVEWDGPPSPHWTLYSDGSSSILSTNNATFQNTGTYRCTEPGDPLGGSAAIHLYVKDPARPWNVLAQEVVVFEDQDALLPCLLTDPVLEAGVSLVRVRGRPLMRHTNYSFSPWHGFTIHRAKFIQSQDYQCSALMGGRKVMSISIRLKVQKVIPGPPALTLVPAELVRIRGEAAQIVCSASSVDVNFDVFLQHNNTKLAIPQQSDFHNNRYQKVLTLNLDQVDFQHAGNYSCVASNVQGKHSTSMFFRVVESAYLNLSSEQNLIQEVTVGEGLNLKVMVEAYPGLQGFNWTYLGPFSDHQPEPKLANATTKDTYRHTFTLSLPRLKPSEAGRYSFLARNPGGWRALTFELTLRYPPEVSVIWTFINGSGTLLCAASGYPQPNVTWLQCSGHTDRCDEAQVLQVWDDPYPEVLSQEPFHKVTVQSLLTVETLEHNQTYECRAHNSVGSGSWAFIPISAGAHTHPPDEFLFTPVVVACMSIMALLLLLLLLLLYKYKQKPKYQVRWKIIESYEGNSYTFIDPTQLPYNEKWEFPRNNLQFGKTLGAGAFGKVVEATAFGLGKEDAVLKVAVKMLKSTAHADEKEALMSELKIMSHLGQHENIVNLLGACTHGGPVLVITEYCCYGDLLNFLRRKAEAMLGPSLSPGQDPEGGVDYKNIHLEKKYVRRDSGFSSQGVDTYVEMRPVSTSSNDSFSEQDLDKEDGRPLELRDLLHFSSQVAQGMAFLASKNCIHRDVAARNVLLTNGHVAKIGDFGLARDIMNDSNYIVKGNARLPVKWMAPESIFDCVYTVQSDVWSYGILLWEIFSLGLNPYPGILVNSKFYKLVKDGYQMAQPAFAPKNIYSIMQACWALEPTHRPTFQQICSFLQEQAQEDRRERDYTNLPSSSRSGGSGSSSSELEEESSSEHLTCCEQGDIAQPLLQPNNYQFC
Sequence of Kit (P10721 26-976, species assumed): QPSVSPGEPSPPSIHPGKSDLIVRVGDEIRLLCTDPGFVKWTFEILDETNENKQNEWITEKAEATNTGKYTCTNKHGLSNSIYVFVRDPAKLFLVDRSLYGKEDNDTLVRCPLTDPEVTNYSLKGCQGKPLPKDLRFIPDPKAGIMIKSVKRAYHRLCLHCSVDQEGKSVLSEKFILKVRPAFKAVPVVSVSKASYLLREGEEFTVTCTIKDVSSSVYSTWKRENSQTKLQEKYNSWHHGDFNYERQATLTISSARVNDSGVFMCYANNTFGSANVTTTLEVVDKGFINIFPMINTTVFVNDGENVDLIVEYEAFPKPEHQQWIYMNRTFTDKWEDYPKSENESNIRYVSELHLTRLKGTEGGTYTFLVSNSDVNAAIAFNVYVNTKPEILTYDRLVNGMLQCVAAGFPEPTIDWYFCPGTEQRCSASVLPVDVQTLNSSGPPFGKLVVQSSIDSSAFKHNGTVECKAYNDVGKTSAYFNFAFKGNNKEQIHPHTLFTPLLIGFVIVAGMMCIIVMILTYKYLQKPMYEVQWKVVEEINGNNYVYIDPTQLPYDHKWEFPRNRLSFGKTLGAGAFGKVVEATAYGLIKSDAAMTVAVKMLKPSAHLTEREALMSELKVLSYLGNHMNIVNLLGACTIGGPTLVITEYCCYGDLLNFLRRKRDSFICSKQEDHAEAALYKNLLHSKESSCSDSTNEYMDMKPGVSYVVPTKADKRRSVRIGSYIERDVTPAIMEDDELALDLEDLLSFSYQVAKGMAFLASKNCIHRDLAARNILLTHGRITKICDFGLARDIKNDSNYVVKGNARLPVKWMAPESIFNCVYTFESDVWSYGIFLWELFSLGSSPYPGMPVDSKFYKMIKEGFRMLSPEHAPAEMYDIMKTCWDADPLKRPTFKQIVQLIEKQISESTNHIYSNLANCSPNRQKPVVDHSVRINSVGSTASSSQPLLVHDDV
T3 sequence (P33261 whole entry): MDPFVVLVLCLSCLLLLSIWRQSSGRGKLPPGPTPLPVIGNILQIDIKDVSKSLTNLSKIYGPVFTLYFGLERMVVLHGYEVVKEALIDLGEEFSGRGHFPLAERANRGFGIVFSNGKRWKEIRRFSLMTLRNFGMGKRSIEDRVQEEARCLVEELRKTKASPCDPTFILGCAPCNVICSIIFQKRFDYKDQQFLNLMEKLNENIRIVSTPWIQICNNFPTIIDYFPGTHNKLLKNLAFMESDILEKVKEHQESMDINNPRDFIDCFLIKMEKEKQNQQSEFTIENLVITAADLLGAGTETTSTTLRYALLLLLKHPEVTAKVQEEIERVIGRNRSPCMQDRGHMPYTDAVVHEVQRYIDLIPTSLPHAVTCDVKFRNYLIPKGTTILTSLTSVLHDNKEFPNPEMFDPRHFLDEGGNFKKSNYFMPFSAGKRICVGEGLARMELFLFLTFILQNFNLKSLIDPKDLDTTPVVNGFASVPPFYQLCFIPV
T6 sequence (P10635 whole entry): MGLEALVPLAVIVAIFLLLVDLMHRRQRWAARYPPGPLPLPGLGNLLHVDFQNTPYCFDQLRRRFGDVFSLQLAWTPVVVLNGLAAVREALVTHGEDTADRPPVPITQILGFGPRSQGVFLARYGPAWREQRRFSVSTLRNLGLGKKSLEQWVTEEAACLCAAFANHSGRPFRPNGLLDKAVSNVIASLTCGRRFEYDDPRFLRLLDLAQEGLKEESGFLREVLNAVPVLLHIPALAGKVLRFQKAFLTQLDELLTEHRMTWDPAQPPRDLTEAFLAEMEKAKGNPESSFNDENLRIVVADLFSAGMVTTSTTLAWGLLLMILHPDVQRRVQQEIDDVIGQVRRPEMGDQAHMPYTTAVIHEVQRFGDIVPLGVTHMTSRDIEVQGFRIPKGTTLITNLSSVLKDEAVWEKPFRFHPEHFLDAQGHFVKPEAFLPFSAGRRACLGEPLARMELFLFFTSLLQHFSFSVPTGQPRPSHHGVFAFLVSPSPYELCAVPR

As for `CCCS(=O)(=O)Nc1ccc(F)c(C(=O)c2c[nH]c3ncc(-c4cnc(OC)nc4)cc23)c1F` [Compound P-0001, propane-1-sulfonic acid {2,4-difluoro-3-[5-(2-methoxy-pyrimidin-5-yl)-1H-pyrrolo[2,3-b]pyridine-3-carbonyl]-phenyl}-amide], the IC50 is greater than 10 µM at CYP3A4(BFC); greater than 10 µM at CYP2C19; less than 0.01 µM on B-Raf V600E; 5 to 10 µM on CYP2C9; greater than 10 µM on CYP2D6. Moreover, on Tec, the “Kinase having IC50 of <1 μM” value was “Tec”. Moreover, the “Kinase having IC50 of >1 μM” value on Kit is listed as “Kit”; at Btk, “Btk”; at Kdr it was “Kdr”; at Fms it was “Fms”.

Regarding `CCCS(=O)(=O)Nc1ccc(F)c(C(=O)c2c[nH]c3ncc(C#N)cc23)c1F` [Compound P-0002, propane-1-sulfonic acid [3-(5-cyano-1H-pyrrolo[2,3-b]pyridine-3-carbonyl)-2,4-difluoro-phenyl]-amide], the IC50 on CYP3A4(BFC) was greater than 10 µM; at CYP2C19, 5 to 10 µM; at B-Raf V600E, less than 0.01 µM; on CYP2C9, 5 to 10 µM; on CYP2D6, greater than 10 µM. Moreover, the “Kinase having IC50 of >1 μM” value on Tec is given as “Tec”; at Kit, “Kit”; on Btk it was “Btk”; on Kdr, “Kdr”; on Fms, “Fms”.

As to `CCCS(=O)(=O)Nc1cccc(C(=O)c2c[nH]c3ncc(C#N)cc23)c1F` [Compound P-0003, propane-1-sulfonic acid [3-(5-cyano-1H-pyrrolo[2,3-b]pyridine-3-carbonyl)-2-fluoro-phenyl]-amide], the IC50 is greater than 10 µM on CYP3A4(BFC); greater than 10 µM at CYP2C19; roughly 0.1 µM against B-Raf V600E; greater than 10 µM on CYP2C9; greater than 10 µM at CYP2D6. Also, the “Kinase having IC50 of >1 μM” value on Kit is recorded as “Kit”; at Btk it was “Btk”; at Kdr it was “Kdr”; at Fms, “Fms”.

With `N#Cc1cnc2[nH]cc(C(=O)c3c(F)ccc(NS(=O)(=O)c4cc(F)ccc4F)c3F)c2c1` [Compound P-0004, N-[3-(5-cyano-1H-pyrrolo[2,3-b]pyridine-3-carbonyl)-2,4-difluoro-phenyl]-2,5-difluoro-benzenesulfonamide], the IC50 on CYP3A4(BFC) is 5 to 10 µM; on CYP2C19, greater than 10 µM; at B-Raf V600E it was less than 0.01 µM; on CYP2C9 it was greater than 10 µM; at CYP2D6, greater than 10 µM. The “Kinase having IC50 of >1 μM” value at Tec is “Tec”; at Btk, “Btk”; at Fms, “Fms”. Also, the “Kinase having IC50 of <1 μM” value at Kit (setting [1]) is on record as “Kit”; at Kdr (setting [1]) it was “Kdr”.

For `N#Cc1cnc2[nH]cc(C(=O)c3c(F)ccc(NS(=O)(=O)c4cccc(F)c4)c3F)c2c1` [Compound P-0005, N-[3-(5-cyano-1H-pyrrolo[2,3-b]pyridine-3-carbonyl)-2,4-difluoro-phenyl]-3-fluoro-benzenesulfonamide], the IC50 is greater than 10 µM on CYP3A4(BFC); greater than 10 µM on CYP2C19; less than 0.01 µM against B-Raf V600E; 5 to 10 µM on CYP2C9; greater than 10 µM at CYP2D6. For the same compound, the “Kinase having IC50 of >1 μM” value on Tec is given as “Tec”; at Kit, “Kit”; on Btk, “Btk”; on Kdr, “Kdr”; at Fms, “Fms”.

Turning to `N#Cc1cnc2[nH]cc(C(=O)c3c(F)ccc(NS(=O)(=O)N4CCCC4)c3F)c2c1` [Compound P-0006, pyrrolidine-1-sulfonic acid [3-(5-cyano-1H-pyrrolo[2,3-b]pyridine-3-carbonyl)-2,4-difluoro-phenyl]-amide], the IC50 at CYP3A4(BFC) was greater than 10 µM; at CYP2C19, greater than 10 µM; against B-Raf V600E, less than 0.01 µM; at CYP2C9, greater than 10 µM; at CYP2D6, greater than 10 µM. Besides, the “Kinase having IC50 of <1 μM” value at Tec is reported as “Tec”. Moreover, the “Kinase having IC50 of >1 μM” value on Kit was “Kit”; at Btk, “Btk”; at Kdr, “Kdr”; on Fms, “Fms”.

On to `CN(C)S(=O)(=O)Nc1ccc(F)c(C(=O)c2c[nH]c3ncc(C#N)cc23)c1F` [Compound P-0007, N,N-dimethylamino-sulfonic acid [3-(5-cyano-1H-pyrrolo[2,3-b]pyridine-3-carbonyl)-2,4-difluoro-phenyl]-amide], for which the IC50 is 5 to 10 µM on CYP3A4(BFC); greater than 10 µM at CYP2C19; less than 0.01 µM on B-Raf V600E; greater than 10 µM at CYP2C9; greater than 10 µM at CYP2D6. The “Kinase having IC50 of >1 μM” value at Tec is reported as “Tec”; at Kit, “Kit”; at Btk, “Btk”; at Kdr it was “Kdr”; on Fms it was “Fms”.

The values are drawn from patent US8901301B2, “Pyrrolo[2,3-]pyridine kinase inhibitors” (Plexxikon Inc., priority 2009, dated 2014).
